Laboratory results: PMC10384675, “Novel Thiazolidine-2,4-dione-trimethoxybenzene-thiazole Hybrids as Human Topoisomerases Inhibitors” (Pharmaceuticals, 2023)

Columns and labels:
MCF-7 cells = test: TUNEL assay; type: cell-based, human; conditions: at IC50 value, 24 h
Source text: Numerous data in the literature indicate that topoisomerase inhibitors are among the most efficient inducers of apoptosis. […] As reference molecule, we adopted ellipticine for this assay, also. […] In contrast, no fluorescence was visible in the DMSO-treated cells used as negative control (Figure 5, CTRL, panel B). These outcomes indicated the ability of the studied compound to induce DNA damage, as ellipticine did, triggering cancer cells death.
Cell apoptosis was detected by means of the TUNEL assay, following the manufacturer’s protocols (CF™488A TUNEL Assay Apoptosis Detection Kit, Biotium, Hayward, CA, USA), with few modifications, as already reported. DAPI staining (0.2 μg/mL, Sigma Aldrich, Milan, Italy) was used for cell nuclei. A fluorescence microscope (Leica DM 6000) was used for the observations at 20× magnification. LAS-X software allowed the acquisition and processing of all of the images, which were representative of three separate experiments.
Figure 5 TUNEL assay. MCF-7 breast cancer cells were exposed to compounds 7e and ellipticine (E) at their IC50 values, or to the vehicle (DMSO) for 24 h. Then, they were further processed, as reported in Section 4, and imaged under a fluorescence microscope (20× magnification). Panels (A), DAPI λex,em= 350 nm/460 nm; panels (B), CF^TM488A, λex,em = 490 nm/515 nm; panels (C) show the merge channel.

caspase-8 = test: Caspase-Glo assay, caspase-8; type: cell-based, human; conditions: MCF-7 cells, at IC50 value, 24 h, vs vehicle
Procedure: (§1) Once established that mitochondria were damaged and cyt c released into the cytoplasm, we evaluated the ability of compound 7e treatment (used at its IC50 value) in modulating caspase activity.
(§2) The caspase-Glo Assay (Caspase-Glo® 3/7, 8 and 9 Assay Systems, Promega Corporation, Madison, WI) was used to detect caspase-3/7, -8 and -9 activities, as reported in [82]. Briefly, cells were grown in white-walled 96-well plates, treated with the compound, and 100 µL of each […] was added.
(§3) Figure 7 Caspase activity in MCF-7 cells. […] Columns mean, bars SD; * p < 0.001; n.s., not significant (treated vs. CTRL).

caspases 3/7 = test: Caspase-Glo assay, caspase-3/7; type: cell-based, human; conditions: MCF-7 cells, at IC50 value, 24 h, vs vehicle
Procedure: as §1, §2, §3

hTopo I = biological target: T1, hTopo I (Homo sapiens, UniProt P11387); test: hTopo I relaxation assay; type: biochemical; set-up: key to Topoisomerase Inhibition hTopo I: (+) inhibition; (−) no inhibition; (+/−) partial inhibition; conditions: 10 µM
T1 construct: purchased TopoGEN, Port Orange, FL, USA
T1 sequence (P11387 1-765): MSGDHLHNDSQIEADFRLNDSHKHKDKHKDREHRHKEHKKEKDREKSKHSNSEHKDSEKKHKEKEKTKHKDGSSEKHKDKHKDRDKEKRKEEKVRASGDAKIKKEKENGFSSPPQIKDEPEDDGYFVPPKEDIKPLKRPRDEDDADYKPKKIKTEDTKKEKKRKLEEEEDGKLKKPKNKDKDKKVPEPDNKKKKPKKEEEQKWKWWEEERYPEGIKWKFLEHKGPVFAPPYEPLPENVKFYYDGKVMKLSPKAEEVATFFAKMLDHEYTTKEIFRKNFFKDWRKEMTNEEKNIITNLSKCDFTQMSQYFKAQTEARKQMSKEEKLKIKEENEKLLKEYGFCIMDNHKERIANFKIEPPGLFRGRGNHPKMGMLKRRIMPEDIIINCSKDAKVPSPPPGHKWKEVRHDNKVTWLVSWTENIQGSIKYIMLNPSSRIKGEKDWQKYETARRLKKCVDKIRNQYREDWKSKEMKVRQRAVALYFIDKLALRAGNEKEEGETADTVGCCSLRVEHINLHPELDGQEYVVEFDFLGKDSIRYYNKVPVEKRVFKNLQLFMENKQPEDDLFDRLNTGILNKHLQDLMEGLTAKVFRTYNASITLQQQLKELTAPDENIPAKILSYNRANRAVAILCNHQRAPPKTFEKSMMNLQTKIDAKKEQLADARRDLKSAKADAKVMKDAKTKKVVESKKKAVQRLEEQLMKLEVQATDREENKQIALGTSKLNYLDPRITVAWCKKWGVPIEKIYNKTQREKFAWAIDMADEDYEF
Source text: Thiazoles and their derivatives are extensively recognized as chemical nuclei of great interest for producing molecules with multiple biological properties. In particular, several compounds bearing these heterocycles were studied for their capability to interfere with DNA topoisomerases (Topos), ubiquitous enzymes essential in several key cellular processes. In recent years, these enzymes have become popular targets in cancer therapy; indeed, the topoisomerase inhibitors can induce damage to genome integrity. Consequently, the inhibition of topoisomerases leads to cell death by apoptosis and, thus, is fatal. Thus, we carried out two specific tests in vitro for both of the Topos, namely the hTopo I relaxation and the hTopo II decatenation assays. For the hTopo I relaxation assay, we exposed the enzyme to the most interesting compounds, 7b–7e, at the final concentration of 10 µM for 1 h at 37 °C, using as substrate the supercoiled pHOT1 (see Section 4 Materials and Methods for more details). […] Contrarily, in the CTRL lane, where the hTopo I was exposed to only vehicle (DMSO), several bands due to pHOT1 DNA cleavage were present (Figure 3, lane C). […] In Figure 3, panel B, the hTopo I inhibition results using ellipticine, as reference molecule are shown. […] An electrophoretic mobility shift of the pHOT1 DNA was also noticeable, due to the intercalating properties of ellipticine.
hTopo I relaxation assays were performed by incubating the substrate (supercoiled pHOT1) with the recombinant hTopo I (TopoGEN, Port Orange, FL, USA) and compounds, as indicated in the supplier protocol (TopoGEN, Port Orange, FL, USA), with some revisions. hTopo II decatenation assays were conducted by incubating the kinetoplast DNA substrate (kDNA) with the hTopo II (TopoGEN, Port Orange, FL) and studied compounds, as indicated in the supplier procedures (TopoGEN, Port Orange, FL, USA), with some changes as in [80].
Figure 3 hTopo I relaxation assay. Plasmid pHOT1, used as substrate, was incubated with hTopo I with or without the studied compounds 7b–7e (10 µM concentration), panel (A), and with or without ellipticine (10 and 50 µM concentration), panel (B). Lane A, relaxed DNA marker; lane B, pHOT1 supercoiled DNA, lane C, CTRL (DMSO), lane D–G, compounds 7b–7e 10 µM, respectively. Lane 1, pHOT1 supercoiled DNA; lane 2, CTRL (DMSO), lanes 3–4, ellipticine 10 and 50 µM, respectively.

caspase-8 activity (caspase-8): no change | caspases 3/7 activity (caspases 3/7): higher activity | Topoisomerase Inhibition hTopo I (hTopo I): − | hTopo I activity inhibition (in words) (hTopo I; 1 h, 37 °C, supercoiled pHOT1): able to inhibit hTopo I activity
SMILES: COc1cc(/C=C2\SC(=O)N(CC(=O)Nc3nc(-c4ccc(Br)cc4)cs3)C2=O)cc(OC)c1OC [compound 7e, (Z)-2-(5-(3,4,5-Trimethoxybenzylidene)thiazolidin-2,4-dion-3-yl)-N-(4-(4-bromophenyl)thiazol-2-yl)acetamide]
apoptosis (TUNEL, green nuclear fluorescence) (MCF-7 cells): had undergone the apoptotic process
